We go through 28 compounds from patent US9376436B2, “2-(pyridin-2yl)-1, 7-diaza-spiro [4.4] nonane-6-one compound as voltage-gated sodium channels modulators” (CONVERGENCE PHARMACEUTICALS LIMITED, priority 2011, dated 2016).

Structures are written as SMILES. Where a name gives a salt, the structure may show the parent alone. Read-outs that look alike come from different tables or passages of the source.

For the assay, the target named is T1, hNaV1.7 (Homo sapiens, UniProt Q15858).
T1 construct: expressed in transfected cells; host or cells: HEK293
T1 sequence (Q15858 whole entry): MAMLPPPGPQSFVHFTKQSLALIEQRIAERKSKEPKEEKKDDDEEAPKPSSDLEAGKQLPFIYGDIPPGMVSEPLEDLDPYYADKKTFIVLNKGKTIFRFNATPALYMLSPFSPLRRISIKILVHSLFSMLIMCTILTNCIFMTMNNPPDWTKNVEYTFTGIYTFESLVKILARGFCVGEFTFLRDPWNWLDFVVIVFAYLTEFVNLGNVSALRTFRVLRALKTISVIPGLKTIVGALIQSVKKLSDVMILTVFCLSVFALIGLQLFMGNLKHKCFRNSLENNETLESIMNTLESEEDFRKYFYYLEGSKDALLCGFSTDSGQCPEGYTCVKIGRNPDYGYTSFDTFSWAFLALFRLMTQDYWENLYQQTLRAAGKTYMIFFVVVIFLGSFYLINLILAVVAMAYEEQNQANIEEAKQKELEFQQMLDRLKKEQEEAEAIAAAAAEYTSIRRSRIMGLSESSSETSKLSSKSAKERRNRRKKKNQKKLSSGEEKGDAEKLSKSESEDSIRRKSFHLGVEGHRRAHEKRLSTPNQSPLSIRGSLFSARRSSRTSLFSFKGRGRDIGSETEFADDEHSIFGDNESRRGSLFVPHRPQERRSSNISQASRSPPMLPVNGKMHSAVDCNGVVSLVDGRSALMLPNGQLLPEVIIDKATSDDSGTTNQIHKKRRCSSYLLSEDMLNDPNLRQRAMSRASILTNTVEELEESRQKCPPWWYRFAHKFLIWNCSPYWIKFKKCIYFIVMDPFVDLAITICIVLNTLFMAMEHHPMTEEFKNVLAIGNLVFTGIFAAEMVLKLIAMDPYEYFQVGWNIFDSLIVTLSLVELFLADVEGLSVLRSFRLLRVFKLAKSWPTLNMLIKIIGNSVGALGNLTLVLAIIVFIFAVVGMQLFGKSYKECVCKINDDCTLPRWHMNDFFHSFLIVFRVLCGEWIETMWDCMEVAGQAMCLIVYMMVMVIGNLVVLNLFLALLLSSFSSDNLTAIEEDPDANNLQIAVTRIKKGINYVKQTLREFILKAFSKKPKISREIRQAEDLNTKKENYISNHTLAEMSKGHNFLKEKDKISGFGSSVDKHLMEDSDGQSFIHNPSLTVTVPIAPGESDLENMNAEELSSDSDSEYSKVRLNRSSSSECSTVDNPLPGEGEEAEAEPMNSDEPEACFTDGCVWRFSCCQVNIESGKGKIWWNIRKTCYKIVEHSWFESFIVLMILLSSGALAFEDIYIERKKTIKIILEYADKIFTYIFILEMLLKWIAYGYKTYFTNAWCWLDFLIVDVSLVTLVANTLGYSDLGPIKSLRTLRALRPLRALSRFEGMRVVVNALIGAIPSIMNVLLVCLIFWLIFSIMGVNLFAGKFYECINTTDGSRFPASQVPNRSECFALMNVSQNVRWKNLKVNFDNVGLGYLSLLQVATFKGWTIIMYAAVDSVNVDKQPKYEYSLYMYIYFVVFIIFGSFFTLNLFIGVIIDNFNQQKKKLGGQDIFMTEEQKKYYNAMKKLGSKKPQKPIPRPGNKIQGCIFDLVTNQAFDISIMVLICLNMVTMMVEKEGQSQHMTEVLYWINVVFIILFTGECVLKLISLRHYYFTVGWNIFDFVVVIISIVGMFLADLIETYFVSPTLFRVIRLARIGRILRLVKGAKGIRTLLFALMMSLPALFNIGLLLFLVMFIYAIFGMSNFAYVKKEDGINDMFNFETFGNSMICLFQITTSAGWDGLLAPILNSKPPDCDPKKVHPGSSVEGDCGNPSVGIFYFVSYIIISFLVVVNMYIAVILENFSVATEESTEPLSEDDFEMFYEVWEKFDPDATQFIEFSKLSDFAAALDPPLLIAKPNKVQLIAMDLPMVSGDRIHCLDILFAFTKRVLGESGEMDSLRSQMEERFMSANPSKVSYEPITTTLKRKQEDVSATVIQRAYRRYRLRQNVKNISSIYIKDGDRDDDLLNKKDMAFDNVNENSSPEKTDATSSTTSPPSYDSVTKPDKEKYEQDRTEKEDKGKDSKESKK
In words: QPatch NaV1.7 assay (whole-cell patch clamp, QPatch16x). It is filed as cell-based. To be noted: HEK293-hNaV1.7 cells. The essentials:
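Automated whole-cell recordings in hNaV1.7-expressing HEK293 cells, holding at either −90 mV (mostly closed channels) or the half-inactivation voltage. Compounds applied cumulatively at four concentrations for 120 s each; peak current on 20 ms depolarisation to 0 mV fitted by Hill equation to yield pIC50.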

The mark [1] stands for this setting: holding voltage V1/2 SSI (half of channels inactivated), read-out: QP Nav1.7 SSI vhalf pIC50 (converted).
Setting [2] is: holding voltage −90 mV (most channels closed), read-out: QP Nav1.7 −90 mV pIC50 (converted).

With `CCOc1ccc(F)c(-c2ccnc([C@H]3CC[C@]4(CCN(C)C4=O)N3)c2)c1` [Example 146, (2R,5R)-2-[4-(5-Ethoxy-2-fluoro-phenyl)-2-pyridyl]-7-methyl-1,7-diazaspiro[4.4]nonan-6-one hydrochloride], the IC50 by setting is: under setting [1], 2 µM; under setting [2], 31.6 µM.

With `CCOc1ccc(F)c(-c2ccnc([C@@H]3CC[C@@]4(CCN(C)C4=O)N3)c2)c1` [Example 147, (2S,5S)-2-[4-(5-Ethoxy-2-fluoro-phenyl)-2-pyridyl]-7-methyl-1,7-diazaspiro[4.4]nonan-6-one hydrochloride], the IC50 by setting is: under setting [1], 3.16 µM; under setting [2], 50.1 µM. The matching figures for `CCOc1cc(-c2ccnc([C@@H]3CC[C@@]4(CCN(C)C4=O)N3)c2)c(F)cc1F` [Example 148, (2S,5S)-2-[4-(5-Ethoxy-2,4-difluoro-phenyl)-2-pyridyl]-7-methyl-1,7-diazaspiro[4.4]nonan-6-one hydrochloride]: 31.6 µM and 398 µM. Take `CCOc1cc(-c2ccnc([C@H]3CC[C@@]4(CCN(C)C4=O)N3)c2)c(F)cc1F` [Example 149, (2R,5S)-2-[4-(5-Ethoxy-2,4-difluoro-phenyl)-2-pyridyl]-7-methyl-1,7-diazaspiro[4.4]nonan-6-one hydrochloride]: the IC50 was 25.1 µM under setting [1] and 398 µM under setting [2]. The matching figures for `CCOc1cc(-c2ccnc([C@@H]3CC[C@@]4(CCN(C)C4=O)N3)c2)c(F)cc1C` [Example 150, (2S,5S)-2-[4-(5-Ethoxy-2-fluoro-4-methyl-phenyl)-2-pyridyl]-7-methyl-1,7-diazaspiro[4.4]nonan-6-one hydrochloride]: 12.6 µM and 126 µM. The matching figures for `CCOc1cc(-c2ccnc([C@H]3CC[C@@]4(CCN(C)C4=O)N3)c2)c(F)cc1C` [Example 151, (2R,5S)-2-[4-(5-Ethoxy-2-fluoro-4-methyl-phenyl)-2-pyridyl]-7-methyl-1,7-diazaspiro[4.4]nonan-6-one hydrochloride]: 15.8 µM and 100 µM.

With `COc1cnc([C@H]2CC[C@]3(CCN(C)C3=O)N2)cc1-c1ccc(C(F)(F)F)cc1` [Example 152, (2R,5R)-2-[5-Methoxy-4-[4-(trifluoromethyl)phenyl]-2-pyridyl]-7-methyl-1,7-diazaspiro[4.4]nonan-6-one hydrochloride], the IC50 was 15.8 µM under setting [1] and 200 µM under setting [2]. On to `COc1cnc([C@@H]2CC[C@]3(CCN(C)C3=O)N2)cc1-c1ccc(C(F)(F)F)cc1` [Example 153, (2S,5R)-2-[5-Methoxy-4-[4-(trifluoromethyl)phenyl]-2-pyridyl]-7-methyl-1,7-diazaspiro[4.4]nonan-6-one hydrochloride], for which the IC50 is 12.6 µM under setting [1] and 158 µM under setting [2]. Regarding `COc1cnc([C@@H]2CC[C@@]3(CCN(C)C3=O)N2)cc1-c1ccc(C(F)(F)F)cc1` [Example 154, (2S,5S)-2-[5-Methoxy-4-[4-(trifluoromethyl)phenyl]-2-pyridyl]-7-methyl-1,7-diazaspiro[4.4]nonan-6-one hydrochloride], the IC50 is, setting by setting: under setting [1], 12.6 µM; under setting [2], 100 µM. The matching figures for `COc1cnc([C@H]2CC[C@@]3(CCN(C)C3=O)N2)cc1-c1ccc(C(F)(F)F)cc1` [Example 155, (2R,5S)-2-[5-Methoxy-4-[4-(trifluoromethyl)phenyl]-2-pyridyl]-7-methyl-1,7-diazaspiro[4.4]nonan-6-one hydrochloride]: 3.98 µM and 39.8 µM. With `CN1CC[C@@]2(CC[C@H](c3cc(-c4ccc(OC(F)F)cc4F)ccn3)N2)C1=O` [Example 156, (2R,5S)-2-[4-(4-Difluoromethoxy-2-fluoro-phenyl)-pyridin-2-yl]-7-methyl-1,7-diaza-spiro[4.4]nonan-6-one hydrochloride], the IC50 reads like this: under setting [1], 20 µM; under setting [2], 126 µM. In the case of `CN1CC[C@@]2(CC[C@H](c3cc(-c4cn(C)c5ccccc45)ccn3)N2)C1=O` [Example 157, (2R,5S)-7-Methyl-2-[4-(1-methyl-1H-indol-3-yl)-pyridin-2-yl]-1,7-diaza-spiro[4.4]nonan-6-one hydrochloride], the IC50 under setting [1] is 25.1 µM and the IC50 under setting [2] was 79.4 µM.

Consider `CCOc1c(F)cccc1-c1ccnc([C@H]2CC[C@@]3(CCN(C)C3=O)N2)c1` [Example 158, (2R,5S)-2-[4-(2-Ethoxy-3-fluoro-phenyl)-2-pyridyl]-7-methyl-1,7-diazaspiro[4.4]nonan-6-one hydrochloride], for which the IC50 under setting [1] was 63.1 µM and the IC50 under setting [2] was 1260 µM.

As to `CC(C)c1ccc(F)c(-c2ccnc([C@H]3CC[C@@]4(CCN(C)C4=O)N3)c2)c1` [Example 159, (2R,5S)-2-[4-(2-Fluoro-5-isopropyl-phenyl)-2-pyridyl]-7-methyl-1,7-diazaspiro[4.4]nonan-6-one hydrochloride], the IC50 reads like this: under setting [1], 7.94 µM; under setting [2], 31.6 µM.

Turning to `CN1CC[C@@]2(CC[C@H](c3cc(-c4cc(N5CCCC5=O)ccc4F)ccn3)N2)C1=O` [Example 160, (2R,5S)-2-[4-[2-Fluoro-5-(2-oxopyrrolidin-1-yl)phenyl]-2-pyridyl]-7-methyl-1,7-diazaspiro[4.4]nonan-6-one hydrochloride], the IC50 under setting [1] was 1580 µM. Consider `CC(C)Oc1ccc(-c2ccnc([C@@H]3CC[C@@]4(CCN(C)C4=O)N3)c2)cc1` [Example 161, (2S,5S)-2-[4-(4-Isopropoxyphenyl)-2-pyridyl]-7-methyl-1,7-diazaspiro[4.4]nonan-6-one hydrochloride], for which the IC50 reads like this: under setting [1], 39.8 µM; under setting [2], 126 µM. Taken in the same sequence, the figures for `CC(C)Oc1ccc(-c2ccnc([C@H]3CC[C@@]4(CCN(C)C4=O)N3)c2)cc1` [Example 162, (2R,5S)-2-[4-(4-Isopropoxyphenyl)-2-pyridyl]-7-methyl-1,7-diazaspiro[4.4]nonan-6-one hydrochloride] were 3.98 µM and 15.8 µM. As to `COc1ccc(-c2ccnc([C@H]3CC[C@@]4(CCN(C)C4=O)N3)c2)cc1OC` [Example 163, (2R,5S)-2-[4-(3,4-Dimethoxyphenyl)-2-pyridyl]-7-methyl-1,7-diazaspiro[4.4]nonan-6-one hydrochloride], the IC50 under setting [2] is 7940 µM. For `CN1CC[C@@]2(CC[C@H](c3cc(-c4cccc5cccnc45)ccn3)N2)C1=O` [Example 164, (2R,5S)-7-Methyl-2-[4-(8-quinolyl)-2-pyridyl]-1,7-diazaspiro[4.4]nonan-6-one hydrochloride], the IC50 is 39.8 µM under setting [1] and 1260 µM under setting [2].

For the compound `CN1CC[C@@]2(CC[C@H](c3cc(-c4cccc(Cl)c4C#N)ccn3)N2)C1=O` [Example 165, 2-Chloro-6-[2-[(2R,5S)-7-methyl-6-oxo-1,7-diazaspiro[4.4]nonan-2-yl]-4-pyridyl]benzonitrile hydrochloride], the IC50 under setting [1] was 100 µM and the IC50 under setting [2] was 158 µM. `CN1CC[C@@]2(CC[C@H](c3cc(-c4ccc5c(c4)CCO5)ccn3)N2)C1=O` [Example 166, (2R,5S)-2-[4-(2,3-Dihydrobenzofuran-5-yl)-2-pyridyl]-7-methyl-1,7-diazaspiro[4.4]nonan-6-one hydrochloride]: the IC50 under setting [1] is 126 µM and the IC50 under setting [2] was 2000 µM. Taken in the same sequence, the figures for `CCOc1ccc(-c2ccnc([C@H]3CC[C@@]4(CCN(C)C4=O)N3)c2)cc1C` [Example 167, (2R,5S)-2-[4-(4-Ethoxy-3-methyl-phenyl)-2-pyridyl]-7-methyl-1,7-diazaspiro[4.4]nonan-6-one hydrochloride] were 39.8 µM and 39.8 µM. As to `COCc1cccc(-c2ccnc([C@H]3CC[C@@]4(CCN(C)C4=O)N3)c2)c1` [Example 168, (2R,5S)-2-[4-[3-(methoxymethyl)phenyl]-2-pyridyl]-7-methyl-1,7-diazaspiro[4.4]nonan-6-one hydrochloride], the IC50 was 158 µM under setting [1] and 316 µM under setting [2]. The matching figures for `CCOc1cc(F)ccc1-c1ccnc([C@H]2CC[C@@]3(CCN(C)C3=O)N2)c1` [Example 169, (2R,5S)-2-[4-(2-Ethoxy-4-fluoro-phenyl)-2-pyridyl]-7-methyl-1,7-diazaspiro[4.4]nonan-6-one hydrochloride]: 6.31 µM and 126 µM. On to `CC(C)CCn1cc(-c2ccnc([C@H]3CC[C@@]4(CCN(C)C4=O)N3)c2)cn1` [Example 170, (2R,5S)-2-[4-(1-Isopentylpyrazol-4-yl)-2-pyridyl]-7-methyl-1,7-diazaspiro[4.4]nonan-6-one hydrochloride], for which the IC50 reads like this: under setting [1], 25.1 µM; under setting [2], 398 µM. Take `CN1CC[C@@]2(CC[C@H](c3cc(-c4ccc(C5(C#N)CC5)cc4)ccn3)N2)C1=O` [Example 171, 1-[4-[2-[(2R,5S)-7-Methyl-6-oxo-1,7-diazaspiro[4.4]nonan-2-yl]-4-pyridyl]phenyl]cyclopropanecarbonitrile hydrochloride]: the IC50 was 50.1 µM under setting [1] and 158 µM under setting [2]. The matching figures for `CN1CC[C@@]2(CC[C@H](c3cc(-c4ccc5c(c4)OC(F)(F)O5)ccn3)N2)C1=O` [Example 172, (2R,5S)-2-[4-(2,2-Difluoro-1,3-benzodioxol-5-yl)-2-pyridyl]-7-methyl-1,7-diazaspiro[4.4]nonan-6-one hydrochloride]: 31.6 µM and 316 µM. Turning to `CN1CC[C@@]2(CC[C@H](c3cc(-c4cccc(-n5cccn5)c4)ccn3)N2)C1=O` [Example 173, (2R,5S)-7-Methyl-2-[4-(3-pyrazol-1-ylphenyl)-2-pyridyl]-1,7-diazaspiro[4.4]nonan-6-one hydrochloride], the IC50 is, setting by setting: under setting [1], 12.6 µM; under setting [2], 200 µM.
